In patent publication US20190350940A1, “PLATINUM COMPOUNDS, COMPOSITIONS, AND USES THEREOF” (priority 2015, published 2019):
pIC50: −log10 of the molar value. “And” between values parts separate entries of the source, which are not always exact repeats. Equal values may be shown once. “Also recorded” adds a separate entry of the source.

What was measured:
[1] = pH stability: acidifying agents versus citrate buffered saline; type: physicochemical; details: room temperature
Description: In order to determine whether a buffer would be required to maintain stability, two acidifying agents, hydrochloric acid and citric acid, were evaluated with respect to a control formulation in 5 mM citrate buffered saline. All vehicles were brought to a pH of 4 in saline and each formulation was made at 1 mg/ml concentration in each vehicle.

[2] = system: male and female rats; test: Repeat-dose intravenous toxicity study in rats with a 3-week recovery period (Compound 8-TX-007); type: in vivo
Description: (§1) Groups of 30 animals (15/sex) each received vehicle control or Compound 8 9, 14, 19, or 6 mg/kg. Groups of 20 animals (10/sex) received Compound 8 9, 14, 19, or 6 mg/kg and 6 animals (3/sex) received vehicle control in the TK portion of the study.
Assessment of toxicity was based on mortality, clinical observations, functional observational battery evaluations, body weight, and food consumption and efficiency; ophthalmoscopic examinations; and clinical and anatomical pathology. RBC pellet analysis was conducted for total platinum content.
Toxicity and TK assessments were conducted for the test article and positive control.

[3] = pH stability: pH range screen in Britton Robinson buffer (Impurity 2 formation); type: physicochemical; details: 0.1 mg/ml in Britton Robinson buffer, room temperature
Description: It has been well established in the literature that the maleimide group is susceptible to a ring-opening product at physiological pH values. In order to determine the stability of Compound 8 at a range of pH values, a stock solution of 10 mg/ml Compound 8 in N,N-dimethylformamide (DMF) was spiked into a series of Britton Robinson buffers with pH set at values of 2, 4, 5, 6, 7.3, and 8 to make a final concentration of 0.1 mg/ml Compound 8. The amount of Impurity 2 (maleimide ring opening impurity) that was produced over the course of 24 hr at room temperature is shown in FIG. 1.

[4] = Single dose intravenous dose range-finding toxicity study in Beagle dogs (Compound 8-TX-002); type: in vivo, dog; details: both sexes, Beagle, in vivo; single IV dose, dog
Description: (§2) This study (Compound 8-TX-002) was conducted to evaluate and characterize the acute toxicity and to determine an MTD of Compound 8 when administered once via IV injection to the dog, and to assist in dose selection for a subsequent dog cardiovascular study (Compound 8-TX-005). The test article, Compound 8, was formulated prior to dosing, as a solution in 5 mM citrate buffered saline (0.9% sodium chloride), pH about 4-4.5 at nominal concentrations of 1.2, 2.4, 4.0, and 4.8 mg/mL. Dose formulations were all within the acceptance criteria (+10% of target concentration) ranging from 92.1 to 99.8 percent of target concentration.
(§3) Groups of 2 animals each (1 male, 1 female) received Compound 8 at doses of 3, 6, 10, or 12 mg/kg. Assessment of toxicity was based on mortality, clinical observations, body weight, and qualitative food assessment; physical examinations; and clinical pathology. Toxicokinetic assessment was conducted for platinum concentration in the plasma and plasma ultrafiltrate.

[5] = system: Beagle dogs; test: as above; type: in vivo, dog
Description: as §2, §3

[6] = system: BxPC-3 human pancreatic adenocarcinoma; test: BxPC-3 pancreatic xenograft model; type: in vivo, mouse; details: female, Crl:NU(NCr)-Foxn1^nu nude, mouse, in vivo, 20 mg/kg, 13 day
Description: The effect of Compound 8 on TGI was evaluated in the BxPC-3 human pancreatic adenocarcinoma nude mouse (female Crl:NU(NCr)-Foxn1^nu) xenograft model.

[7] = molecular target: T1, hERG (Homo sapiens, UniProt Q12809); test: Binding to membrane preparations of hERG using a radiolabeled antagonist
T1 construct: host or cells: membrane preparations
T1 sequence (Q12809 whole entry): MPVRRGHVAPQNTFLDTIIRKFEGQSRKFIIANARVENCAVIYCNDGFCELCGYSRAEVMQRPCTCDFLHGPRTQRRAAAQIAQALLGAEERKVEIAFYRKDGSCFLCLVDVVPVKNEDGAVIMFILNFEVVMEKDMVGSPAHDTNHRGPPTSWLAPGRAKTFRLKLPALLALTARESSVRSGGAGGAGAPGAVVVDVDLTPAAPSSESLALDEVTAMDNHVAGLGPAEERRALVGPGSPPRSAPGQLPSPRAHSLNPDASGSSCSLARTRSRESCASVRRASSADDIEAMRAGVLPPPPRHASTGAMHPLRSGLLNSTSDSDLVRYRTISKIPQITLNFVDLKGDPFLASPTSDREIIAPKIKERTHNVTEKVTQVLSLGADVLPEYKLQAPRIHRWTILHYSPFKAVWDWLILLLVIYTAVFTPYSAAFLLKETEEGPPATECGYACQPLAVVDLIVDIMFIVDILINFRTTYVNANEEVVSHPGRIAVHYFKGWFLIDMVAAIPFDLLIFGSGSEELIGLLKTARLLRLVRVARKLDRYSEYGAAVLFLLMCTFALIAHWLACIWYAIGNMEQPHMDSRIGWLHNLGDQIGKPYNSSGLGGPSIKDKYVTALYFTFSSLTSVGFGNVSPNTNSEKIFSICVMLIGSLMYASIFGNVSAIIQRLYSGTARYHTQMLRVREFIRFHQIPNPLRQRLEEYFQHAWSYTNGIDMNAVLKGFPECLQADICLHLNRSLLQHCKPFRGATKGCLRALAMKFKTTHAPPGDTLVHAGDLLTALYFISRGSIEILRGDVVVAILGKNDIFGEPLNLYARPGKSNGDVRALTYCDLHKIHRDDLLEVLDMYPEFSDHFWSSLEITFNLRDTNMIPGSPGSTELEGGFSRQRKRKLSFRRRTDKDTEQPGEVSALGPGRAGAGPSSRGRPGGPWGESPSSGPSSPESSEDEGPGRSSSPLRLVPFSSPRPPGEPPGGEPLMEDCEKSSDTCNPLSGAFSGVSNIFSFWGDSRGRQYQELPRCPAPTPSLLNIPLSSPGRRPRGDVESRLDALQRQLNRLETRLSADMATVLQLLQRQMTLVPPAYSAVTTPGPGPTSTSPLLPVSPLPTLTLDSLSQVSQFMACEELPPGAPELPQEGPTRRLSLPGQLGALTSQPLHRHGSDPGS
Description: An in vitro evaluation of the binding of Compound 8 to membrane preparations of hERG using a radiolabeled antagonist was performed.

[8] = molecular target: CYP3A4 (Homo sapiens, UniProt P08684); test: CYP inhibition, 3A4; type: in vitro ADME
Chain of CYP3A4 (P08684 whole entry): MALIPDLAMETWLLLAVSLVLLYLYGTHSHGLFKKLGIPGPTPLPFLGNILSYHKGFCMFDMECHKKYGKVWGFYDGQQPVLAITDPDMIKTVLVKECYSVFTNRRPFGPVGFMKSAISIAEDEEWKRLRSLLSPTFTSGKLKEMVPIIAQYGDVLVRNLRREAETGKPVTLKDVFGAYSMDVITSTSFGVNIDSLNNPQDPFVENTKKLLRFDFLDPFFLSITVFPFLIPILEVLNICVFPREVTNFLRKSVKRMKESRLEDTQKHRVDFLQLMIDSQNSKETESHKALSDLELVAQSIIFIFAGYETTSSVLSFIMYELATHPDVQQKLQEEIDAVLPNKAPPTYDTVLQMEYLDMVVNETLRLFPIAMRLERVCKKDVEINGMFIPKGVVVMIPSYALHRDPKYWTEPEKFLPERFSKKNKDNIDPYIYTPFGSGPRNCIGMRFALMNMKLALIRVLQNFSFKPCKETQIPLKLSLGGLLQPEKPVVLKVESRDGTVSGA

[9] = Temperature effects: mock manufacturing process; type: physicochemical; details: after 24 hrs
Description: In order to determine the effect of both temperature and light on the formation of the two main degradation products, mock manufacturing processes and mock clinical dilution studies were conducted. The mock process was simulated by formulating and holding the Compound 8 drug product at room temperature or under cold conditions (e.g. ice bath) for discreet amounts of time that would simulate the large scale manufacturing process. Once the samples went through the mock manufacturing process, they were stored at −20° C., as a frozen solution, and then thawed as they would be in the clinic prior to administration. For the mock clinical dilution study, each solution was diluted in saline, at the lowest dilution factor expected in the clinic. Then the diluted formulations were stored in syringes at room temperature and then assayed for potency and total impurities (from both procedures) at the end of the day.
For the mock manufacturing process, the room temperature samples were formulated and stored at room temperature for a total of 8 hrs and then refrigerated overnight. In contrast, the cold samples were formulated on ice, stored in the 2-8° C. for a total of 8 hrs, and at the end of the day frozen to −20° C.

[10] = system: human plasma; test: In vitro plasma protein binding, human plasma (Compound 8-DMPK-008); type: in vitro ADME; details: incubation 10 minutes at 37° C.
[11] = molecular target: T2, CYP1A2 (Homo sapiens, UniProt P05177); test: CYP inhibition, 1A2; type: in vitro ADME
T2 construct: host or cells: microsomes are mentioned
T2 sequence (P05177 whole entry): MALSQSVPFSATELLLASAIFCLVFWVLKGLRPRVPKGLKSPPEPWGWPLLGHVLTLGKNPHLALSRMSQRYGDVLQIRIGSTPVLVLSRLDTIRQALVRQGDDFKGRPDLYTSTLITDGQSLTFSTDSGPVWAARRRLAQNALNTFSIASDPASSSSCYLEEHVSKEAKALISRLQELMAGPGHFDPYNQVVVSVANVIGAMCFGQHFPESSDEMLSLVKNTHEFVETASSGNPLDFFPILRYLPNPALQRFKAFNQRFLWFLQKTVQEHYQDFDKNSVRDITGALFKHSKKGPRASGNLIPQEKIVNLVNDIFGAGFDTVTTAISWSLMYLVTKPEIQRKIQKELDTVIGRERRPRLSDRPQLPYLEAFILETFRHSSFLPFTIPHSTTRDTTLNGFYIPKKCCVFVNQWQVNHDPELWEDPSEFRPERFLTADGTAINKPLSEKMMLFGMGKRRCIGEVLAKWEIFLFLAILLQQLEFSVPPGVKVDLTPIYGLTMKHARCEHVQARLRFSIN

[12] = Platinum pharmacokinetics/toxicokinetics in rat; details: in vivo
Description: Platinum in the plasma ultrafiltrate was considered free drug (non-protein bound), while the platinum in the plasma was a combination of protein bound and free drug.
as §1

[13] = formulated under cold conditions

Compound: CC(=O)[O][Pt]([NH2])([NH2])([Cl])([Cl])[O]C(=O)NCCCCCN1C(=O)C=CC1=O [Compound 8]
- Impurity 2 formation ([1]; 1 mg/ml in 5 mM citrate buffered saline pH 4, 24 hr): inhibits the formation of Impurity 2
- Impurity 2 formation ([1]; 1 mg/ml in saline brought to pH 4 with hydrochloric acid, after 24 hrs): over 2 % by area
- Body weights (decreased relative to vehicle) ([2]; Compound 8 9 mg/kg): transiently through Day 7
- Local tolerance: microscopic evaluation of the last injection site ([2]; Compound 8 19 mg/kg, terminal males and females): slightly increased incidence and/or severity of perivascular subacute/chronic inflammation and/or hemorrhage
- Changes attributable to altered renal function ([2]; Compound 8 9, 14, 19 mg/kg): noted in both sexes at all Compound 8 dose levels
- Deaths, clinical observations, functional observation battery (FOB), ophthalmic examinations ([2]; Compound 8 9, 14, 19 mg/kg): no deaths and no effects were noted
- Clinical Chemistry (moderate to marked) ([2]; Compound 8, 19 mg/kg): Creatinine↑, AST↑, ALT↑,; also recorded: Amylase↑, Lipase↑,; also recorded: Cholesterol↑ Globulin↑
- Clinical observations, FOB and ophthalmic observations ([2]; Compound 8, 19 mg/kg): No adverse effects
- Mortality ([2]; Compound 8, 19 mg/kg): No unscheduled deaths
- Pathology: Kidneys (moderate or severe) ([2]; Compound 8, 19 mg/kg): Tubule degeneration/necrosis
- Pathology: Organ weights ([2]; Compound 8, 19 mg/kg): Thymus↓
- Pathology: Stomach nonglandular ([2]; Compound 8, 19 mg/kg): erosion ulcer (1M), no
- Pathology: Testes ([2]; Compound 8, 19 mg/kg): Degeneration/atrophy (1M)
- Pathology: Thymus ([2]; Compound 8, 19 mg/kg): (1M), (moderate at terminal,
- Microscopic changes, kidney ([2]; rat, in vivo): kidney tubular degeneration/necrosis and/or regeneration
- Organ weight changes ([2]; rat, in vivo, 14 mg/kg): decreased absolute and relative thymus weights in males and females
- Increase in urea nitrogen ([2]; rat, in vivo, 19 mg/kg): +14%
- Impurity 2 (maleimide ring opening impurity) formation ([3]; pH 5, 4 hr): not detected
- Impurity 2 (maleimide ring opening impurity) formation ([3]; pH 6, within 1 hr): not detected
- Impurity 2 (maleimide ring opening impurity) formation ([3]; pH values below 4, up to 24 hr): not produced
- MTD [4]: 10 mg/kg
- Decrease in body weight ([5]; 12 mg/kg animals): exceeded 10%
- Chemistry, coagulation, or urinalysis parameters ([5]; 3, 6, 10, 12 mg/kg): no definitive effects
- Hematology parameters ([5]; both sexes, all groups (3, 6, 10, 12 mg/kg)): decreases in reticulocytes, red cell mass, neutrophils and platelets
- MTD ([5]; single IV dose, dog, corresponds to 10 mg/kg): 200 mg/m^2 and 205 (MTD) mg/m^2
- Mortality and treatment-related clinical observations ([5]; up to 12 mg/kg (240 mg/m^2)): no mortalities or treatment related clinical observations; also recorded: no mortalities
- Treatment-related side effects [6]: swollen tails on Day 13 in all animals
- hERG binding finding ([7]; 3 uM, conjugated to human serum albumin): no evidence for significant cardiovascular toxicity
- hERG binding finding ([7]; 10 uM, unconjugated to human serum albumin): no evidence for significant cardiovascular toxicity
- pIC50 [8]: 5.71
- Formation of Impurity 1 ([9]; formulated at room temperature): ~0.8%
- Formation of Impurity2 ([9]; formulated at room temperature): ~0.3%
- Formation of Impurity 1 [9, 13]: < 0.3%
- Formation of Impurity2 [9, 13]: ~0.1%
- Protein bound [10]: > 99%
- pIC50 [11]: 6.26
- Ultrafiltrate levels as share of the total platinum levels ([12]; both): approximately 1%
- RBC platinum concentrations, Day 21 relative to Day 1 ([12]; 19 mg/kg): did not result in significant accumulation of platinum in the RBCs
